Assay results as given in patent publication US5104859A, “Continuous administration of adenosine to reduce pulmonary vascular resistance” (priority 1990, dated 1992).
Values joined by “and” are separate entries in the source; they are usually repeats but may differ in a detail not shown here. Identical values can stand only once. “Also recorded” adds a separate entry of the source.

How the values were obtained:
[1] = system: systemic arterial blood pressure and central hemodynamics; assay: Controlled hypotension during anesthesia: central hemodynamics (dipyridamole-pretreated cerebral aneurysm surgery patients); settings: for tachyphylaxis: constant infusion rate during hypotension
Experimental: One hour before the operation the patients were premedicated orally with diazepam (10-20 mg.) Atropine (0.5 mg) and droperidol (0.1 mg. per kg.) were given intravenously before induction of anesthesia. Induction was started with thiopental (5 mg. per kg) followed by phenoperidine (1-2 mg), a synthetic opiate with pharmacodymanics resembling fentanyl but with a longer duration of action and 1/10 of its analgesic potency.
Pancuronium bromide (0.1 mg per kg) was given to facilitate endotracheal intubation. Anesthesia was maintained by supplementary doses of phenoperidine and droperidol, as required. […] Phenoperidine was supplemented regularly to prevent the blood pressure from exceeding the preanesthetic level (approx. 1 mg/30-60 min). Controlled hyperventilation was employed with a humidified gas mixture of 60% N2 O in oxygen to maintain PaCO2 values at approximately 30 mmHg (±1.5/SEM). Mannitol (1-1.5 g. per kg) was given routinely at the start of the operation (e.g., 1-2 hours prior to the controlled hypotension). The patients were operated on in the horizontal supine position.
A 1.2-mm plastic cannula was introduced into the left radial artery to monitor systemic arterial blood pressure (MABP) and collect arterial blood. A balloon-tipped, flow-directed, quadruple lumen Swan-Ganz catheter (Model 93A-831-7.5 F, VIP) was inserted percutaneously via the left basilic vein, and its correct position in the pulmonary artery was determined by pressure tracings. The catheter was used for the monitoring of mean right atrial pressure (RAP), mean pulmonary artery pressure (PAP), and mean pulmonary capillary wedge pressure (PCWP) for the determination of cardiac output and collection of mixed venous blood and for the infusion of adenosine. Another plastic cannula was introduced percutaneously, in a retrograde direction, into the right jugular bulb for the collection of blood. The correct position was verified by x-ray.
The ECG was monitored with a standard chest (V5) lead. Heart rate was determined from the R-R interval. Blood pressures were measured by transducers placed at the midthoracic level. Cardiac output (QT) was determined in triplicate according to the thermodilution technique with a cardiac output computer (Edwards Lab, model 9510). Isotonic glucose, 10 ml at 1° C., was used as a thermal indicator. The ECG, heart rate, blood pressures, and thermodilution curves were recorded on a Grass® polygraph.
Measurements and blood samplings were performed immediately before hypotension, as late as possible during hypotension (1-5 min before terminating the infusion) and approximately 30 min after the hypotensive period.
Dipyridamole (5 mg. per ml) was infused iv (0.3-0.4 mg. per kg. over a period of 5-10 min) approximately 20 minutes prior to the induction of controlled hypotension. […] (See Pedersen, J. Chromatogr., 162: 98-103 (1979).
The infusion was started at a rate of 0.01 mg. per kg. per minute, which was doubled at 15 second intervals until the desired MABP level of 40-50 mmHg was reached. […] Serum creatinine was determined before and on two consecutive days after operation. The standard ECG was recorded the day before and the day after operation.
Systemic vascular resistance (SVR) was derived from the formula [formula] and pulmonary vascular resistance (PVR) from the formula [formula]
The statistical significance (control 1 vs. adenosine and control 1 vs. control 2) was determined by Student's t test for paired data. A P value of <0.05 was regarded as significant.

coronary bypass grafts = assay: Coronary bypass graft flow and hemodynamics during coronary artery surgery
Experimental: It has been reported that coronary artery grafts occlude more frequently during the postoperative period when low graft-flow values are obtained during surgery. See Groudin et al, Circulation, 42: Suppl 3: 106-111 (1970).
In a study designed to investigate the use of adenosine to inhibit occlusion of coronary grafts, nine patients (age 45-65, all taking beta-blockers) were studied during coronary artery surgery. After premedication, morphine (10-15 mg) and scopolamine (0.4-0.6 mg), anesthesia was induced by fentanyl (30 mcg/kg.b.w.). Pancuronium (0.1 mg/kg b.w.) was given to facilitate endotracheal intubation. Anesthesia was maintained with fentanyl 0.5 mg/hour, N2 O (50%) in oxygen and droperidol (0.1 mg/kg b.w.). During bypass thiomebumal (5 mg/kg b.w.) was given. Nitrous oxide was not used after bypass. Extracorporeal circulation (ECC) was performed with a roller pump and a Shiley bubble oxyqenator primed with crystalloid solution. ECG (modified V5), an arterial line and a Swan-Ganz Catheter were used for monitoring and for hemodynamic measurements. Blood flow in bypass grafts (n=15, internal mammary and venous grafts), was measured with appropriate sized square wave electromagnetic flow probes (Nycotron 732). The study was performed 20-30 minutes after the termination of ECC. After a control period (5 min), adenosine (5.3 mg/ml. clinical solution) was continuously infused in a central vein in order to induce approximately 10% reduction of mean arterial blood pressure (about 30 to 50 ug per kg. per min.). Graft flow was continuously measured before and during a 10 or 30 minute infusion of adenosine and finally during the following 5 minute control period. Data are expressed as mean ±SEM and differences were tested with Student's paired t-test against the preceding period.

[2] = Control 2, 30 min after hypotension

Nc1ncnc2c1ncn2[C@@H]1O[C@H](CO)[C@@H](O)[C@H]1O [adenosine]
PVR during adenosine [1]: unchanged
RAP, PAP and PCWP [1]: not influenced
decrease in MABP [1]: 43±3%
decrease in SVR [1]: 61±3%
increase in cardiac output [1]: 44±9%
increase in heart rate [1]: 9±2 beats per minute
Cardiac output [1, 2]: 5.17 ± 0.54 liters per min.
Diastolic blood pressure [1, 2]: 71 ± 3 mmHg
Mean arterial blood pressure [1, 2]: 91 ± 4 mmHg
Pulmonary artery pressure [1, 2]: 14.7 ± 1.4 mmHg
Pulmonary capillary wedge pressure [1, 2]: 9.9 ± 1.4 mmHg
Pulmonary vascular resistance [1, 2]: 0.97 ± 0.15 mmHg per liter min.
Right atrial pressure [1, 2]: 5.6 ± 0.8 mmHg
Systolic blood pressure [1, 2]: 130 ± 7 mmHg
heart rate [1, 2]: 58 ± 3 beats per min.
rebound hypertension ([1]; after discontinuation of infusion): did not occur
tachyphylaxis [1]: without evidence of tachyphylaxis
tachyphylaxis ([1]; listed as Adenosine): absence of tachyphylaxis
SVR during adenosine ([1]; decreased from 16.7): 6.2 mmHg per liter a minute
Cardiac output ([1]; during adenosine): 6.86 ± 0.71 liters per min.
Diastolic blood pressure ([1]; during adenosine): 34 ± 2 mmHg
Mean arterial blood pressure ([1]; during adenosine): 46 ± 2 mmHg and 46 mmHg
Pulmonary artery pressure ([1]; during adenosine): 16.5 ± 0.9 mmHg
Pulmonary capillary wedge pressure ([1]; during adenosine): 11.0 ± 1.0 mmHg
Pulmonary vascular resistance ([1]; during adenosine): 0.82 ± 0.08 mmHg per liter min.
Right atrial pressure ([1]; during adenosine): 7.2 ± 0.7 mmHg
Systolic blood pressure ([1]; during adenosine): 78 ± 6 mmHg
heart rate ([1]; during adenosine): 63 ± 3 beats per min.
cardiac output during adenosine ([1]; increased from 4.9): 6.9 1 per minute
MABP increase after hypotension vs control period ([1]; persistently higher after hypotension): approximately 10 mmHg
time to decrease in MABP ([1]; within): 1 to 2 min
time to restoration of MABP after discontinuation ([1]; within): 1 to 5 min
graft blood flow, post-operative low dose (coronary bypass grafts; 0.02 to 0.05 mg/kg/min, words): increase graft blood flow
graft flow (coronary bypass grafts; 30-50 ug per kg per min): doubled graft flow; also recorded: marked and reproducible increase in graft flow
myocardial work (coronary bypass grafts; 30-50 ug per kg per min): without increased myocardial work
arrhythmias (coronary bypass grafts; 49±4 ug/kg/minute): No arrhythmias were observed
heart rate, mean pulmonary artery pressure, central venous pressure, stroke index and left ventricular stroke work index (coronary bypass grafts; 49±4 ug/kg/minute): remained essentially unchanged
increase of cardiac output (coronary bypass grafts; 49±4 ug/kg/minute): 12%
reduction of mean arterial pressure (coronary bypass grafts; 49±4 ug/kg/minute): 12%
Cardiac output (coronary bypass grafts; control after adenosine): 5.3 ± 0.3 L/min
Left Ventricular Stroke Index (coronary bypass grafts; control after adenosine): 0.49 ± 0.04 Joule/n^2
Mean Arterial Pressure (coronary bypass grafts; control after adenosine): 85 ± 3 mmHg
Pulmonary Artery Pressure (mean) (coronary bypass grafts; control after adenosine): 19.9 ± 1.0 mmHg
RAP (mean) (coronary bypass grafts; control after adenosine): 5.8 ± 0.7 mmHg
Stroke Index (coronary bypass grafts; control after adenosine): 39.6 ± 2.5 ml/m^2
heart rate (coronary bypass grafts; control after adenosine): 81 ± 6 beats/min.
graft flow (coronary bypass grafts; control after adenosine, n = 15): 39 ± 5 mL/min
Cardiac output (coronary bypass grafts; during adenosine): 5.6 ± 0.3 L/min
Left Ventricular Stroke Index (coronary bypass grafts; during adenosine): 0.41 ± 0.03 Joule/n^2
Mean Arterial Pressure (coronary bypass grafts; during adenosine): 74 ± 3 mmHg
Pulmonary Artery Pressure (mean) (coronary bypass grafts; during adenosine): 18.8 ± 1.2 mmHg
RAP (mean) (coronary bypass grafts; during adenosine): 5.3 ± 0.4 mmHg
Stroke Index (coronary bypass grafts; during adenosine): 38.8 ± 2.0 ml/m^2
heart rate (coronary bypass grafts; during adenosine): 82 ± 15 beats/min.
graft flow (coronary bypass grafts; during adenosine, n = 15): 77 ± 7 mL/min
graft flow rate on termination of adenosine (coronary bypass grafts; in vivo): restored to its original value
atrio-ventricular conductance at low dose (coronary bypass grafts; post-operative low doses, words): without significant effect on atrio-ventricular conductance
